Assay results reported in PubChem BioAssay (NCI).
Values joined by “and” are separate entries in the source; they are usually repeats but may differ in a detail not shown here. Equal entries are not always repeated.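 Compound exposure: 48 hours, 5 concentrations, 96-well plates. GI50: concentration for 50% inhibition of growth. At the TGI there is no net growth.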

Legend:
Test in all cases: inhibition of tumour cell growth, NCI panel, 48 h
A549 NSCLC = test system: A549 NSCLC
K-562 leukemia = test system: K-562 leukemia
OVCAR-8 ovarian = test system: OVCAR-8 ovarian
SW-620 colon = test system: SW-620 colon
UACC-62 melanoma = test system: UACC-62 melanoma
UO-31 renal = test system: UO-31 renal
COLO 205 colon = test system: COLO 205 colon
SF-268 CNS = test system: SF-268 CNS

Row | SMILES | TGI (A549 NSCLC) | TGI (K-562 leukemia) | TGI (OVCAR-8 ovarian) | TGI (SW-620 colon) | TGI (UACC-62 melanoma) | TGI (UO-31 renal) | TGI (COLO 205 colon) | TGI (SF-268 CNS) | GI50 (A549 NSCLC) | GI50 (COLO 205 colon) | GI50 (K-562 leukemia) | GI50 (OVCAR-8 ovarian) | GI50 (SF-268 CNS) | GI50 (SW-620 colon) | GI50 (UACC-62 melanoma)
1 | COC1CC(OC)C(O)C(CO)O1 (configuration not stated) | > 100 µM | > 100 µM | > 100 µM | > 100 µM | > 100 µM | > 100 µM | – | – | – | – | – | – | – | – | –
2 | C#Cc1cc(CN(CC(=O)OC(C)(C)C)CC(=O)OC(C)(C)C)nc(CN(CC(=O)OC(C)(C)C)CC(=O)OC(C)(C)C)c1 | 89.4 µM | 26.6 µM | 31.6 µM | 21.1 µM | 36.5 µM | 26 µM | 24.9 µM | 44.8 µM | – | – | – | – | – | – | –
3 | COC(=O)[C@@]12C=CC(=O)[C@H]3C[C@@H](C(C(C)C)C1)[C@]32OC (some centres not stated) | > 100 µM | > 100 µM | > 100 µM | > 100 µM | > 100 µM | – | > 100 µM | > 100 µM | – | – | – | – | – | – | –
4 | COC(C)(C)[C@H](O)C(O)CC(C)[C@@H]1CCC23CC12CCC1[C@@]2(C)CCC(OC(C)=O)C(C)(C)C2CC(OC2OC(COC(C)=O)C(O)C(O)C2O)[C@]13C (some centres not stated) | 10.1 µM and 13.8 µM | 10.6 µM and 21.4 µM | 14 µM and 20.7 µM | 13.7 µM and 15.3 µM | 9.47 µM and 19.2 µM | 14.5 µM and 18.6 µM | 11.3 µM and 4.58 µM | 12.4 µM and 21.3 µM | 3.67 µM | 2.17 µM | 4.68 µM | 6.13 µM | 6.87 µM | 4.67 µM | 6.28 µM
5 | CCOC(=O)c1cc(OC(=O)CC)c2c(OC)ccc(OC)c2c1 | > 100 µM | > 100 µM | – | > 100 µM | > 100 µM | > 100 µM | > 100 µM | – | – | – | – | – | – | – | –
6 | CC(C)c1ccc2nc3ccc(C(=O)NCCN4CCN(c5ccccc5)CC4)cn3c(=O)c2c1 | > 100 µM | > 100 µM | > 100 µM | > 100 µM | > 100 µM | > 100 µM | > 100 µM | > 100 µM | – | – | – | – | – | – | –
7 | FC(F)(F)c1nc(-c2ccccc2)oc1Sc1oc(-c2ccccc2)nc1C(F)(F)F | > 100 µM | > 100 µM | > 100 µM | > 100 µM | > 100 µM | > 100 µM | > 100 µM | > 100 µM | – | – | – | – | – | – | –
8 | Cc1ccc(NC(=O)CC2C(=O)Nc3ccccc3S2=O)c(C)c1 (configuration not stated) | 64.8 µM | > 87.1 µM | 34.1 µM | 67.4 µM | 42.4 µM | 45.3 µM | 60.5 µM | 65.3 µM | – | – | – | – | – | – | –
9 | COc1ccc(C2C3=C(COC3=O)Oc3cc4c(cc32)OCO4)cc1 (configuration not stated) | > 100 µM | > 100 µM | > 100 µM | > 100 µM | > 100 µM | 74 µM | 63.6 µM | – | – | – | – | – | – | – | –
10 | Cn1nc2ccccc2cc1=O | > 100 µM | > 100 µM | > 100 µM | > 100 µM | > 100 µM | > 100 µM | > 100 µM | > 100 µM | – | – | – | – | – | – | –
11 | CCCCCCCCCCCCC(CCCCCCCCCCCC)OP(=O)(O)O | > 100 µM | > 100 µM | > 100 µM | > 100 µM | > 100 µM | > 100 µM | > 100 µM | > 100 µM | – | – | – | – | – | – | –
12 | COC(=O)C1=C(C)N(NC(N)=O)C(C)(O)C12CCOC2=O (configuration not stated) | > 100 µM | > 100 µM | > 100 µM | > 100 µM | – | > 100 µM | > 100 µM | > 100 µM | – | – | – | – | – | – | –
13 | C=C[C@H]1C=Cc2c(OC)cccc2[C@@H]1COP1(=S)NC(C)C(c2ccccc2)O1 (some centres not stated) | > 100 µM | > 100 µM | > 100 µM | > 100 µM | > 100 µM | – | > 100 µM | > 100 µM | – | – | – | – | – | – | –
14 | O=C(C=Nc1ccccc1C(=O)[O-])c1cccs1.O=C(C=Nc1ccccc1C(=O)[O-])c1cccs1.[Zn+2] | > 100 µM | 88 µM | > 100 µM | > 100 µM | 42 µM | > 100 µM | > 100 µM | 79.8 µM | – | – | – | – | – | – | –
15 | COC(=O)C(=O)C(C(=O)OC)C(=O)C(=O)Nc1cc(Cl)c(Cl)cc1Cl (configuration not stated) | > 100 µM | > 100 µM | > 100 µM | – | > 100 µM | > 100 µM | > 100 µM | > 100 µM | – | – | – | – | – | – | –
16 | O=NN(CCCl)C(=O)N[C@H]1CCCC[C@@H]1Cl | > 100 µM | > 100 µM | > 100 µM | > 100 µM | – | > 100 µM | > 100 µM | > 100 µM | – | – | – | – | – | – | –
17 | Cc1ccc(N2C(=O)C(Cl)=C(Cl)C2=O)cc1 | > 100 µM | 87.4 µM | – | 34.8 µM | – | > 100 µM | 30.7 µM | 37.8 µM | – | – | – | – | – | – | –
18 | COC(=O)Cc1cc(=O)n2c([nH]c3ccccc32)c1C#N | > 100 µM | > 100 µM | > 100 µM | > 100 µM | – | > 100 µM | > 100 µM | > 100 µM | – | – | – | – | – | – | –
19 | COc1cc(Nc2nc3cc(C(F)(F)F)ccc3nc2C)cc(OC)c1OC | – | 20.1 µM | 24.5 µM | 26.6 µM | 13.3 µM | 12.6 µM | 25.3 µM | 33.5 µM | – | – | – | – | – | – | –
20 | COc1ccccc1NC(=O)C(CC(C(=O)Nc1ccccc1OC)/C(C)=N/NC(=O)c1ccccc1O)/C(C)=N/NC(=O)c1ccccc1O (configuration not stated) | > 100 µM | > 100 µM | > 100 µM | > 100 µM | – | > 100 µM | > 100 µM | > 100 µM | – | – | – | – | – | – | –
